Values after ≈ are worked out from the molar mass of the structure shown.
Legend:
Format in all cases: functional, cell-based
[1] = system: A549; assay: Cytotoxicity against human A549 […] by MTT assay
[2] = system: HCT-8; assay: Cytotoxicity against human HCT8 […] by MTT assay
[3] = system: BGC-823; assay: Cytotoxicity against human BGC823 […] by MTT assay
[4] = system: A2780; assay: Cytotoxicity against human A2780 […] by MTT assay

Compound | IC50 [1] [µg/mL] | IC50 [2] [µg/mL] | IC50 [3] [µg/mL] | IC50 [4] [µg/mL]
CC(C)=CCc1c(O)cc(O)cc1-c1cc2ccc(O)c(CC=C(C)C)c2o1 [CATHAFURAN B] | 6.27 (≈ 16.6 µM) | 6.27 (≈ 16.6 µM) | 6.27 (≈ 16.6 µM) | 6.27 (≈ 16.6 µM)
CC(C)=CCc1c(O)cc2c(c1-c1cc3ccc(O)cc3o1)C=CC(C)(C)O2 [CATHAFURAN C] | – | 7.33 (≈ 19.5 µM) | – | 7.61 (≈ 20.2 µM)
O=c1[nH]cc(F)c(=O)[nH]1 [FLUOROURACIL] | 0.2 (≈ 1.54 µM) | 0.2 (≈ 1.54 µM) | 0.2 (≈ 1.54 µM) | 0.2 (≈ 1.54 µM)
